# Patent publication US7141648B2, “Synthesis of cyclosporin analogs” (priority 2001, dated 2006)
# Where two headings read alike, the source gives them in different places.
# What was measured:
# rabbits = assay: toxicokinetic/nephrotoxicity study in the rabbit model, 30 days
# Procedure: (§1) On Days 1 and 7, blood samples were collected prior to drug administration and at 0.5, 1, 2, 4, 8, 12, 18, and 24 hours post-dose to generate a pharmacokinetic profile. Other evaluated parameters included clinical observations, body weight, food consumption, hematology, clinical chemistry, gross pathology, and histopathological examination of selected tissues/organs.
# rats, dogs, and primates = assay: repeated-dose oral toxicity studies; type: in vivo
# [1] = tested on: New Zealand White rabbits immunized with ovalbumin; assay: antigen-induced arthritis model in the rabbit; type: in vivo
# Procedure: New Zealand White rabbits, maintained under specific pathogen free conditions, were immunized with 10 mg of ovalbumin in saline emulsified with Freund's complete adjuvant that was given intramuscularly and subcutaneously into several sites in the nape of the neck. Fourteen days later, all animals started receiving 2 daily intra-articular injections of 5 mg ovalbumin and 65 ng of human recombinant transforming growth factor 2 in saline.
# Animals assigned to the treatment protocol (8/group) were dosed starting on the day of disease onset (˜Day 28) until sacrifice on Day 42.
# Evaluated parameters included mortality, body weight, serum creatinine, histology, and outcome assessments such as knee joint swelling, synovial fluid counts, gross postmortem analysis, and histology.
# [2] = for Area under the curve / Cmax: male rabbits, i.v. 10 mg/kg/day, mean ± SD
# Procedure: as §1
# Blood samples were analyzed via high performance liquid chromatography coupled with mass spectrometry (LCMS).
# [3] = tested on: Male DBA/1 Lac J mice immunized with chick type II collagen; assay: collagen-induced arthritis model in the mouse; type: in vivo; conditions: for negative erosion scores compared to vehicle treatment group: PIP joint
# Procedure: Male DBA/1 Lac J mice, kept under virus antibody free conditions, were immunized subcutaneously at 8 to 10 weeks of age with 100 microgram of chick type II collagen, emulsified in Freund's complete adjuvant. […] Animals assigned to the treatment protocol (12/group) were dosed starting on the day of disease onset (˜Day 28) until sacrifice on Day 38.
# Evaluated parameters included mortality, serum creatinine, histology, and outcome assessments, such as clinical scoring (visual), hind paw swelling, histological scoring, erosion scoring, and immunohistochemistry.
# Erosion scoring was done in a blinded manner by examining sagittal sections of the proximal interphalangeal (PIP) joint of the middle digit for the presence or absence of erosions (defined as demarcated defects in cartilage or bone filled with inflammatory tissue). This approach allowed for comparisons of the same joint.
# [4] = tested on: hearts transplanted from Wistar Furth rats to Lewis rats; assay: rat heart transplant model; type: in vivo
# Description: If graft dysfunction was noted during the 30-day post-transplantation period, the animal was sacrificed. If the animal survived longer than 30 days post-transplantation, the test and control articles were discontinued and the animal was allowed to continue until graft dysfunction or up to 100 days post-transplantation.
# [5] = tested on: islets from a CBA/J mouse transplanted into diabetic Balb/c mouse recipients; assay: islet cell allotransplantation mouse model; conditions: especially apparent at 25 mg/kg/day
# Description: Blood glucose was monitored daily until the time of graft failure, as defined by a glucose level greater than 17 mmol/L on two consecutive days.
compound,measurement,setting,value
C=C/C=C/C[C@@H](C)[C@@H](O)[C@H]1C(=O)N[C@@H](CC)C(=O)N(C)CC(=O)N(C)[C@@H](CC(C)C)C(=O)N[C@@H](C(C)C)C(=O)N(C)[C@@H](CC(C)C)C(=O)N[C@@H](C)C(=O)N[C@H](C)C(=O)N(C)[C@@H](CC(C)C)C(=O)N(C)[C@@H](CC(C)C)C(=O)N(C)[C@@H](C(C)C)C(=O)N1C [ISATX247],"examination of organs, female rabbits","rabbits; 15 mg/kg, 3 female rabbits that completed the study",No changes
same,"examination of organs, male rabbits","rabbits; 15 mg/kg, male rabbits",decrease in spermatogenesis
same,Percent Change in Serum Creatinine Levels Over Baseline,"rabbits; male rabbits, 10 mg/kg, Day 15",+1%
same,Percent Change in Serum Creatinine Levels Over Baseline,"rabbits; male rabbits, 10 mg/kg, Day 30",+10%
same,Percent Change in Serum Creatinine Levels Over Baseline,"rabbits; male rabbits, 15 mg/kg, Day 15",−19%
same,Percent Change in Serum Creatinine Levels Over Baseline,"rabbits; male rabbits, 15 mg/kg, Day 30",−11%
same,hematological parameters,rabbits; rabbits,No significant changes
same,only toxicological effect noted in all species,"rats, dogs, and primates",diarrhea/loose feces
same,tolerability,"rats, dogs, and primates",well-tolerated
same,synovial fluid counts,[1]; prevention protocol,significant reductions
same,synovial histopathological scores compared to vehicle control,"[1]; prevention protocol, after 28 days of therapy, s.c.",significant decrease
same,potency compared to cyclosporine A in treatment and prevention of arthritis,"[1]; rabbit, in vivo",equivalent or potentially more potent than cyclosporine A
same,macroscopic arthritis score,[1]; treatment protocol,significant reduction
same,synovial histopathological scores of animals with established arthritis compared to vehicle controls,"[1]; treatment protocol, 14 days of treatment",Significant amelioration
same,pharmacokinetic parameters in female rabbits compared with male rabbits,"[2]; female rabbits, 10 mg/kg/day, exception: maximum concentration on Day 7",not significantly different
same,Area under the curve,[2]; Day 1,5659 ± 1309 ng·h/mL
same,Cmax,[2]; Day 1,1915 ± 149 ng/mL
same,Area under the curve,[2]; Day 7,5697 ± 1373 ng·h/mL
same,Cmax,[2]; Day 7,1959 ± 470 ng/mL
same,negative erosion scores compared to vehicle treatment group,[3]; 250 μg/mouse i.p. daily,higher negative erosion scores
same,prevention of the development of joint erosions,[3]; 500 μg/mouse,significantly prevent the development of joint erosions
same,negative erosion scores compared to vehicle treatment group,[3]; 500 μg/mouse i.p. daily,significantly higher
same,graft function after discontinuation of dosing,"[4]; 100 days post-transplant (70 days post discontinuation of dosing), a number of animals",still had functioning grafts at 100 days post-transplant
same,increase of survival time over Cyclosporine A,[4]; optimal dose of 1.75 mg/kg/day,approximately 3 fold
same,toxicity compared to cyclosporine A as the dose level increased,[5],less toxic than cyclosporine A
